In this test the test system is HuH-7 replicon cells 5–15 and 9–13 (HCV replication). Nature of the test: Inhibition of viral replication in HuH-7 replicon cells (HCV RNA / GAPDH RNA by multiplex RT-PCR). Conditions: Hepatitis C virus, 72 h; inhibiting 50% of replication; HuH-7 replicon cells, 3 days; read-out: IC50. The format is cell-based. In outline:
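Replicon cells seeded at 7×10^3 cells/well, grown 24 h, then exposed 3 days at 37 °C to compound at final 100 μM–1 μM (1% DMSO). Multiplex TaqMan RT-PCR on total RNA quantified HCV 5′-UTR and GAPDH RNA against a standard curve; HCV/GAPDH ratio reported as percent of untreated control.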
As usually defined, the IC50 is the point on the concentration scale where inhibition reaches its midpoint. In the case of `Cc1ccc(S(=O)(=O)Oc2cc(F)ccc2/C=N/NC(=O)Cc2cccc(Cl)c2)cc1` [Compound 212, 2-((E)-{[(3-chlorophenyl)acetyl]hydrazono}methyl)-5-fluorophenyl 4-methylbenzenesulfonate], the IC50 was below 5 µM.
The figure for `COc1cccc(CC(=O)N/N=C/c2ccccc2OS(=O)(=O)c2ccc(-c3cc(C(F)(F)F)n(C)n3)s2)c1` [Compound 226, 2-((E)-{2-[2-(3-methoxyphenyl)acetyl]hydrazono}methyl)-phenyl 5-[1-methyl-5-(trifluoromethyl)-1H-pyrazol-3-yl]thiophene-2-sulfonate] is below 5 µM; for `O=C(Cc1ccc(I)cc1)N/N=C/c1ccccc1OS(=O)(=O)c1ccc(C(F)(F)F)cc1` [Compound 60, 2-((E)-{2-[2-(4-iodophenyl)acetyl]hydrazono}methyl)-phenyl 4-(trifluoromethyl)benzenesulfonate] it is below 5 µM.
As for `O=C(NCc1ccccn1)Nc1ccccc1OS(=O)(=O)c1ccc(C(F)(F)F)cc1` [Compound 254, 2-({[(pyridin-2-ylmethyl)amino]carbonyl}amino)phenyl 4-(trifluoromethyl)benzenesulfonate], the IC50 is above 50 µM.
The figure for `COc1cccc(S(=O)(=O)Oc2ccccc2/C=N/NC(=O)Cc2ccccc2)c1` [Compound 143, 2-{(E)-[2-(2-phenylacetyl)hydrazono]methyl}phenyl 3-methoxybenzenesulfonate] is 5 to 50 µM; for `COc1cccc(CC(=O)N/N=C/c2ccccc2OS(=O)(=O)c2ccc(Br)s2)c1` [Compound 190, 2-((E)-{2-[2-(3-methoxyphenyl)acetyl]hydrazono}methyl)-phenyl 5-bromothiophene-2-sulfonate] it is below 5 µM.
The figure for `COc1cccc(OCC(=O)N/N=C/c2ccccc2OS(=O)(=O)c2ccc(C(F)(F)F)cc2)c1` [Compound 53, 2-((E)-{2-[2-(3-methoxyphenoxy)acetyl]hydrazono}methyl)-phenyl 4-(trifluoromethyl)benzenesulfonate] is below 5 µM; for `COc1cccc(CCC(=O)N/N=C/c2ccccc2OS(=O)(=O)c2ccc(C(F)(F)F)cc2)c1` [Compound 58, 2-((E)-{2-[3-(3-methoxyphenyl)propanoyl]hydrazono}-methyl)phenyl 4-(trifluoromethyl)benzenesulfonate] it is above 50 µM.
For `COc1ccc(CC(=O)N/N=C/c2ccccc2OS(=O)(=O)c2ccc(C(F)(F)F)cc2)cc1` [Compound 44, 2-((E)-{2-[2-(4-methoxyphenyl)acetyl]hydrazono}methyl)-phenyl 4-(trifluoromethyl)benzenesulfonate] the value was below 5 µM; for `COc1cccc(CC(=O)N/N=C/c2ccc(C)cc2OS(=O)(=O)c2ccc(C)cc2)c1` [Compound 177, 2-((E)-{[(3-methoxyphenyl)acetyl]hydrazono}methyl)-5-methylphenyl 4-methylbenzenesulfonate], below 5 µM; for `COc1cccc(CC(=O)N/N=C/c2ccccc2OS(=O)(=O)c2ccc3nsnc3c2)c1` [Compound 182, 2-((E)-{2-[2-(3-methoxyphenyl)acetyl]hydrazono}methyl)-phenyl 2,1,3-benzothiadiazole-5-sulfonate], below 5 µM.
Take `O=C(Cc1ccc(F)c(C(F)(F)F)c1)N/N=C/c1ccccc1OS(=O)(=O)c1ccc(C(F)(F)F)cc1` [Compound 13, 2-[(E)-(2-{2-[4-fluoro-3-(trifluoromethyl)phenyl]acetyl}hydrazono)-methyl]phenyl 4-(trifluoromethyl)benzenesulfonate]: the IC50 is below 5 µM.
As for `Cc1ccc(C)c(S(=O)(=O)Oc2ccccc2/C=N/NC(=O)Cc2ccccc2)c1` [Compound 130, 2-{(E)-[2-(2-phenylacetyl)hydrazono]methyl}phenyl2,5-dimethylbenzenesulfonate], the IC50 is above 50 µM.
The figure for `O=C(Cc1ccc2c(c1)OCO2)NC1CC1c1ccccc1OS(=O)(=O)c1ccc(C(F)(F)F)cc1` (stereo not shown) [Compound 253, 2-(2-{[2-(1,3-benzodioxol-5-yl)acetyl]amino}cyclopropyl)phenyl 4-(trifluoromethyl)benzenesulfonate] is above 50 µM.
In the case of `O=C(Cc1c(Cl)ccc(Cl)c1Cl)N/N=C/c1ccccc1OS(=O)(=O)c1ccc(C(F)(F)F)cc1` [Compound 22, 2-((E)-{2-[2-(2,3,6-trichlorophenyl)acetyl]hydrazono}methyl)-phenyl 4-(trifluoromethyl)benzenesulfonate], the IC50 is above 50 µM.
For `O=S(=O)(Cc1ccccc1)N/N=C/c1ccccc1OS(=O)(=O)c1ccc(C(F)(F)F)cc1` [Compound 251, 2-{(E)-[2-(benzylsulfonyl)hydrazono]methyl}phenyl4-(trifluoromethyl)benzenesulfonate] the value was 5 to 50 µM.
The figure for `O=C(CCCc1ccccc1)N/N=C/c1ccccc1OS(=O)(=O)c1ccc(C(F)(F)F)cc1` [Compound 46, 2-{(E)-[2-(4-phenylbutanoyl)hydrazono]methyl}phenyl4-(trifluoromethyl)benzenesulfonate] is 5 to 50 µM; for `O=C(Cc1c(F)cccc1F)N/N=C/c1ccccc1OS(=O)(=O)c1ccc(C(F)(F)F)cc1` [Compound 28, 2-((E)-{2-[2-(2,6-difluorophenyl)acetyl]hydrazono}methyl)-phenyl 4-(trifluoromethyl)benzenesulfonate] it is below 5 µM.
For `O=C(Cc1cccs1)N/N=C/c1ccccc1OS(=O)(=O)c1ccc(C(F)(F)F)cc1` [Compound 4, 2-{(E)-[2-(2-thien-2-ylacetyl)-hydrazono]methyl}phenyl 4-(trifluoromethyl)benzenesulfonate] the value was below 5 µM.
In the case of `O=C(Cc1cc(F)cc(F)c1F)N/N=C/c1ccccc1OS(=O)(=O)c1ccc(C(F)(F)F)cc1` [Compound 20, 2-((E)-{2-[2-(2,3,5-trifluorophenyl)acetyl]hydrazono}methyl)-phenyl 4-(trifluoromethyl)benzenesulfonate], the IC50 was below 5 µM.
The figure for `COc1cccc(CC(=O)N/N=C/c2cc(C)ccc2OS(=O)(=O)c2ccc(C)cc2)c1` [Compound 157, 2-((E)-{[(3-methoxyphenyl)acetyl]hydrazono}methyl)-4-methylphenyl 4-methylbenzenesulfonate] is below 5 µM; for `COc1cccc(CC(=O)N/N=C/c2ccccc2OS(=O)(=O)c2ccc(OC(C)C)cc2)c1` [Compound 186, 2-((E)-{2-[2-(3-methoxyphenyl)acetyl]hydrazono}methyl)-phenyl 4-isopropoxybenzenesulfonate] it is below 5 µM.
The figure for `O=C(N/N=C/c1ccccc1OS(=O)(=O)c1ccc(C(F)(F)F)cc1)C1CCN(Cc2ccccc2)C1=O` (stereo not shown) [Compound 91, 2-((E)-{2-[(1-benzyl-2-oxopyrrolidin-3-yl)carbonyl]hydrazono}methyl)phenyl 4-(trifluoromethyl)benzenesulfonate] is above 50 µM; for `Cc1ccc(S(=O)(=O)N/N=C/c2ccccc2OS(=O)(=O)c2ccc(C(F)(F)F)cc2)cc1` [Compound 78, 2-((E)-{2-[(4-methylphenyl)sulfonyl]hydrazono}methyl)-phenyl 4-(trifluoromethyl)benzenesulfonate] it is 5 to 50 µM.
For `COc1cccc(CC(=O)N/N=C/c2c(Br)ccc(OC)c2OS(=O)(=O)c2ccc(C(F)(F)F)cc2)c1` [Compound 169, 3-bromo-6-methoxy-2-((E)-{[(3-methoxyphenyl)acetyl]hydrazono}methyl)-phenyl 4-(trifluoromethyl)benzenesulfonate] the value was below 5 µM.

The values above are taken from patent US7026339B2, “Inhibitors of HCV NS5B polymerase” (priority 2003, dated 2006).
